# From article PMC8775902, “Bifunctional Opioid/Melanocortin Peptidomimetics for Use in Neuropathic Pain: Variation in the Type and Length of the Linker Connecting the Two Pharmacophores” (International Journal of Molecular Sciences, 2022)
# Entries after “also recorded” stand apart in the source; their conditions may differ. Read-outs that look alike come from different tables or passages of the source. Where a SMILES comes first, the peptide text is derived from it. Bridges are numbered along the chain shown (N, C = ends). [ ]: non-standard residue; d: D form. d2Nal = N[C@H](Cc1ccc2ccccc2c1)C(=O)O; Nle = CCCC[C@H](N)C(=O)O; Ahx = NCCCCCC(=O)O; βAla = NCCC(=O)O
# Key:
# [1] = Experimental lipophilicity (P, log P); type: physicochemical
# Source text: We also studied experimentally the lipophilicity of the compounds 1–4. The obtained logP values vary only moderately (in the range −2.30 to −2.92, Table S2) and cannot account for the large differences in the antinociceptive activity. It seems then that the lipophilicity is not a factor responsible for the in vivo activity differences.
# [2] = target: T1, mu opioid receptor (MOR) (Rattus norvegicus, UniProt P33535); assay: Competitive radioligand binding, [3H]DAMGO, rat brain homogenate; conditions: for IC50: [3H]DAMGO, rat brain homogenate, three determinations in duplicate, read-out: Affinity MOR IC50 ± SD; for Selectivity MOR/DOR: calculated as ratio of IC50 values
# T1 construct: The determinations for opioid receptors were performed in rat brain homogenates; from tissue; host or cells: rat brain homogenate (membrane fraction)
# Experimental: (§1) The determinations for opioid receptors were performed in rat brain homogenates by competitive displacement using selective radioligands, namely [^3H]DAMGO (a radioligand specific for MOR) and [^3H][Ile^5,6]DELT II (a radioligand specific for DOR). The measurement for melanocortin receptor MC4 was performed with the use of HEK293 MC4R cells and [^125I]-NDP-α-MSH radioligand.
# (§2) The binding affinity of peptidomimetics 1–9 and reference compoundsTyr-D-Ala-Gly-Phe-NH2 for MOR and DOR was determined in competitive radioligand binding assays according to the method previously described. The specific radioligands were [^3H]DAMGO (DAMGO (a specific MOR ligand) and [^3H][Ile^5,6]DELT II]) (a specific DOR ligand). Membrane fractions of rat brain homogenate were incubated at 25 °C for 60 min in the presence of radioligands (0.5 nM) specific for each receptor and the increasing concentrations of the tested compounds. For measuring non-specific binding, 10 μM naloxone was used as the competitor for opioid receptors. The reactions were carried out in assay buffer containing Tris-HCl (pH 7.4) with an addition of bovine serum albumin (BSA) and protease inhibitors (bacitracin, bestatin, captopril). After the incubation, the binding reactions were terminated by rapid filtration with M-24 Cell Harvester (Brandel/USA) through GF/B Whatman glass fiber strips (pre-soaked with 0.5% PEI in order to minimize non-specific binding). Radioactivity retained on the filters was measured in MicroBeta LS, Trilux scintillation counter (PerkinElmer, USA). The experiments were repeated at least three times in duplicate. The IC50 value for each compound was determined using GraphPad Prism.
# [3] = tested on: mice subjected to CCI (neuropathic pain); assay: Cold plate test in CCI-exposed mice (neuropathic pain, hyperalgesia); type: in vivo; conditions: 7–14 days after CCI, i.t. administration, 95% confidence limits
# Experimental: (§3) The antinociceptive properties of the peptidomimetics 1–9 were assessed in two types of pain models. The first one included naive mice (acute pain), and the second one included mice exposed to chronic constriction injury (CCI, neuropathic pain model). In the latter of the models, two types of stimuli (mechanical pressure and low temperature) were considered. […] In naive mice, the tail-flick test was used to evaluate the analgesic effect (acute pain model). In CCI-exposed mice, hypersensitivity to mechanical and thermal stimuli was measured by von Frey and cold-plate tests, respectively.
# (§4) The surgical procedure was performed according to Bennett and Xie. Under isoflurane anesthesia, an incision was made below the mouse’s right hipbone, and the sciatic nerve was exposed. Three ligatures with 4/0 silk thread were made around the nerve distal to the sciatic notch with 1 mm spacing, until a brief twitch in the respective hind limb was observed. After 7 days of recovery, mice were tested to assess the development of neuropathic pain behavior. […] Main experiments were conducted on days 7–14 after CCI surgical procedure.
# Sensitivity to noxious thermal stimuli was assessed with usage of Cold/Hot Plate Analgesia Meter, (Ugo Basile, Comerio, Italy). The temperature of the plate was kept at 2 °C, and the cut-off latency was 30 s. The mice were placed on the cold plate, and the time until the hind paw was lifted was recorded, which was considered as a reaction to noxious cold stimulus.
# (§5) The behavioral data are presented as the percentage of the maximal possible antinociceptive effect (% MPE ± SEM), which was calculated according to the following equation: % MPE = [(TL − BL)/(CUT-OFF − BL)] × 100%, where BL is the baseline latency, and TL is the latency obtained after drug injection. The results of the experiments were statistically evaluated using one-way analysis of variance (ANOVA). The differences between the treatment groups throughout the study were further analyzed with Bonferroni post hoc tests. The Litchefield and Wilcoxon method was used to calculate the ED50 value (a dose necessary to produce a 50% response) with 95% confidence limits on quantal data.
# [4] = target: melanocortin-4 receptor (MC4R) (Homo sapiens, UniProt P32245); assay: Radioligand competitive binding, [125I]-NDP-α-MSH, HEK293 MC4R cells; conditions: for IC50: [125I]-NDP-α-MSH, HEK293 MC4R cells, average of two assays in duplicates, read-out: Affinity MC4R IC50 ± SD; for Selectivity MC4R/DOR: calculated as ratio of IC50 values
# Experimental: as §1
# HEK293 MC4R were cultured in Earle’s Minimum Essential Medium (EMEM) supplemented with 10% heat inactivated fetal bovine serum (FBS). Cultures were grown under the humidified atmosphere of 5% CO2 in the air at 37 °C, up to 80% settlement of the bottle surface.
# HEK293 MC4R cells were seeded around 10^5 cell/well in a 24-well plates two days before the experiment. Just before experiment, cells were washed twice with 0.5 mL of binding buffer (EMEM supplemented with 25 mM HEPES buffer, 0.2% bovine serum albumin, 1 mM 1,10-phenanthroline, 0.5 mg/L leupeptin and 200 mg/L bacitracin). […] The competition between ligands was ended by gentle withdrawal of medium solution, followed by cell washing with 2 × 0.5 mL of cold binding buffer, while the attached cells were lysed using 2 × 0.5 mL of 1 M NaOH. The radioactivity of collected solutions were measured on WIZARD^2 2480 Automatic Gamma Counter (PerkinElmer, Boston, MA, USA) in measurements with decay correlation protocol. All binding parameters were determined using GraphPad Prism Software (GraphPad Software Inc., San Diego, CA, USA). The competition assay determination was based on the normalized dose response in function of logarithm of inhibitor concentration (with variable slope) equation. All the EC50 values were calculated as an average of two separate competition assays performed in duplicates.
# [5] = tested on: mice subjected to CCI (neuropathic pain); assay: Von Frey test in CCI-exposed mice (neuropathic pain, allodynia); type: in vivo; conditions: for ED50 (CL) Mice Subjected to CCI (Neuropathic Pain) Von Frey (Allodynia): 7–14 days after CCI, i.t. administration, 95% confidence limits
# Experimental: as §3, §4
# Mechanical sensitivity to non-noxious stimuli was measured by applying a set of calibrated nylon monofilaments in increasing value (0.6–6 g; Stoelting, Wood Dale, IL, USA) on a tested hind paw plantar surface, until a behavioral response was observed. Response considered as pain behavior included rapid paw withdrawal, shaking, and licking. In the von Frey test, results are expressed as pressure (g) applied with a calibrated plastic filament to the midplantar surface of the mouse’s injured hind paw (cut-off: 6 g), which elicited a foot withdrawal response.
# as §5
# [6] = target: T2, delta opioid receptor (DOR) (Rattus norvegicus, UniProt P33533); assay: Competitive radioligand binding, [3H][Ile5,6]DELT II, rat brain homogenate; conditions: three determinations in duplicate, read-out: Affinity DOR IC50 ± SD
# T2 construct: The determinations for opioid receptors were performed in rat brain homogenates; from tissue; host or cells: rat brain homogenate (membrane fraction)
# Experimental: as §1, §2
# [7] = tested on: naive mice (acute pain); assay: Tail-flick test in naive mice (acute pain model); type: in vivo; conditions: for ED50 (CL) Naive Mice (Acute Pain) Tail-Flick: i.t. administration, 95% confidence limits; for analgesic effect in naive mice (acute pain), in words / ED50 Naive Mice (Acute Pain) Tail-Flick, class symbol: i.t.
# Experimental: as §3
# The tail-flick test was performed with use of Tail-Flick Analgesic Meter (Ugo Basile, Comerio, Italy) to evaluate the pain threshold to a thermal stimulus. During the procedure, an animal was placed on the apparatus surface and gently held by the experimenter. A beam of light was focused on a dorsal tail surface, approximately at 1 cm from the tail tip. When the animal flicked its tail, the timer stopped, and the recorded time (latency) was measured. The cut-off time to protect tissue damage was 9 s.
# as §5
# T2 sequence (P33533 whole entry): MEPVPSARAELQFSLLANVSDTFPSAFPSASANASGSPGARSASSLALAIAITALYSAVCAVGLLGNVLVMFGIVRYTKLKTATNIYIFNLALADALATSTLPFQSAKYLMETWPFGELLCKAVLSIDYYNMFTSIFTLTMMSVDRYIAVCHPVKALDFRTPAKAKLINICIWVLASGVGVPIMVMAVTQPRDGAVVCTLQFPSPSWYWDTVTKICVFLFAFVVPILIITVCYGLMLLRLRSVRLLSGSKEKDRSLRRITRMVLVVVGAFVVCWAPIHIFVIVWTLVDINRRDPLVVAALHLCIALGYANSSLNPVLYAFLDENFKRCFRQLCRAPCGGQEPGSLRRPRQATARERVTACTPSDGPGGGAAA
# Sequence of melanocortin-4 receptor (MC4R) (P32245 whole entry): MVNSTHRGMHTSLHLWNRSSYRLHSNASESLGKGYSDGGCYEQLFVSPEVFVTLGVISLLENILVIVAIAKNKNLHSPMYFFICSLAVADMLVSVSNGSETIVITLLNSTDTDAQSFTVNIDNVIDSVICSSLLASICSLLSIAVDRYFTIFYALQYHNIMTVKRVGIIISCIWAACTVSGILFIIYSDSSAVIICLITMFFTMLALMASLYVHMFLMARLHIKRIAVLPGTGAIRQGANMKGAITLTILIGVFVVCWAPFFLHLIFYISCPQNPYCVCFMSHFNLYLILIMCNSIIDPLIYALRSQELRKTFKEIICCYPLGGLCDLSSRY
# T1 sequence (P33535 whole entry): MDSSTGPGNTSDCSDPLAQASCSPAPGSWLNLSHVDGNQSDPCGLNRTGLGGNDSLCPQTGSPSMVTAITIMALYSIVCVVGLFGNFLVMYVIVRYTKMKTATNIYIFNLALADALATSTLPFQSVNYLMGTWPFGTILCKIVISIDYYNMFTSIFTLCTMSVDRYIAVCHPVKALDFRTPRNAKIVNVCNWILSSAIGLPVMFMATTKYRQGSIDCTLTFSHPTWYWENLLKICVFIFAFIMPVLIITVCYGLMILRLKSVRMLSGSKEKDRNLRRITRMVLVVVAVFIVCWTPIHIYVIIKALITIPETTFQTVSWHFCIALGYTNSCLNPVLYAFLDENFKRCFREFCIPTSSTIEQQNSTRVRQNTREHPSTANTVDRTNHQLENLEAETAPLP
Compound,logP ([1]; read-out: Lipophilicity Log P),logP ([1]; read-out: Lipophilicity P),IC50 [2] [nM],Selectivity MOR/DOR [2],ED50 (CL) Mice Subjected to CCI (Neuropathic Pain) Cold Plate (Hyperalgesia) [3],IC50 [4] [nM],Selectivity MC4R/DOR [4],ED50 (CL) Mice Subjected to CCI (Neuropathic Pain) Von Frey (Allodynia) [5],IC50 [6] [nM],"analgesic effect in CCI-exposed mice, in words ([5]; CCI mice, von Frey and cold plate tests, i.t.)",ED50 (CL) Naive Mice (Acute Pain) Tail-Flick [7],"analgesic effect in naive mice (acute pain), in words [7]","ED50 Naive Mice (Acute Pain) Tail-Flick, class symbol [7]"
"CCCC[C@H](NC(=O)CCCCCNC(=O)CCCCCNC(=O)[C@H](Cc1ccccc1)NC(=O)CNC(=O)[C@@H](C)NC(=O)[C@@H](N)Cc1ccc(O)cc1)C(=O)N[C@H]1CC(=O)NCCCC[C@@H](C(N)=O)NC(=O)[C@H](Cc2c[nH]c3ccccc23)NC(=O)[C@H](CCCNC(=N)N)NC(=O)[C@@H](Cc2ccc3ccccc3c2)NC(=O)[C@H](Cc2c[nH]cn2)NC1=O [Compound 4, ENK-(Ahx)2-SHU] (H-Y[dA]GF[Ahx][Ahx][Nle]DH[d2Nal]RWK-NH2; lactam 8-13)",-2.92 ± 0.02,-2.92,5.47 ± 1.38,4.1,0.1 (0.004–3.4) nmol,0.5 ± 0.16,45,0.01 (0.00002–7.8) nmol,22.3 ± 12.7,–,–,–,–
ENK-(Pro-Gly)2-SHU [Compound 8],–,–,–,–,–,–,–,–,–,any analgesic effect was not observed; also recorded: very little if any activity,5 (0.4–60.3) nmol,–,–
ENK-4AMB-SHU [Compound 5],–,–,–,–,0.16 (0.1–0.2) nmol,–,–,0.02 (0.005–0.5) nmol,–,–,–,lack of analgesic effect,–
"CCCC[C@H](NC(=O)[C@@H](C)NC(=O)[C@H](Cc1ccccc1)NC(=O)CNC(=O)[C@@H](C)NC(=O)[C@@H](N)Cc1ccc(O)cc1)C(=O)N[C@H]1CC(=O)NCCCC[C@@H](C(N)=O)NC(=O)[C@H](Cc2c[nH]c3ccccc23)NC(=O)[C@H](CCCNC(=N)N)NC(=O)[C@@H](Cc2ccc3ccccc3c2)NC(=O)[C@H](Cc2c[nH]cn2)NC1=O [Compound 1, ENK-D-Ala-SHU] (H-Y[dA]GF[dA][Nle]DH[d2Nal]RWK-NH2; lactam 7-12)",-2.3 ± 0.02,-2.3,69.6 ± 18.7,0.2,–,0.07 ± 0.01,207,–,14.5 ± 1.91,–,–,–,–
[Dmt^1]ENK-Ahx-SHU [Compound 9],–,–,–,–,0.009 (0.005–0.01) nmol,–,–,0.003 (0.000003–3.45) nmol,–,–,–,impossible to calculate ED50 due to weak analgesic effect and poor dose dependency,"# (weak analgesic effects, poor dose dependency, ED50 cannot be calculated)"
"CCCC[C@H](NC(=O)CCCCCNC(=O)[C@H](Cc1ccccc1)NC(=O)CNC(=O)[C@@H](C)NC(=O)[C@@H](N)Cc1ccc(O)cc1)C(=O)N[C@H]1CC(=O)NCCCC[C@@H](C(N)=O)NC(=O)[C@H](Cc2c[nH]c3ccccc23)NC(=O)[C@H](CCCNC(=N)N)NC(=O)[C@@H](Cc2ccc3ccccc3c2)NC(=O)[C@H](Cc2c[nH]cn2)NC1=O [Compound 3, ENK-Ahx-SHU] (H-Y[dA]GF[Ahx][Nle]DH[d2Nal]RWK-NH2; lactam 7-12)",-2.43 ± 0.01,-2.43,64 ± 34.6,0.7,–,1.83 ± 0.81,25,0.0002 (0.00005–0.001) nmol,45.4 ± 32.3,–,–,–,–
ENK-4APhAc-SHU [Compound 6],–,–,–,–,0.02 (0.0005–1.2) nmol,–,–,0.02 (0.0002–1.03) nmol,–,–,42 (21–85) nmol,some analgesic activity,–
"CCCC[C@H](NC(=O)CCNC(=O)[C@H](Cc1ccccc1)NC(=O)CNC(=O)[C@@H](C)NC(=O)[C@@H](N)Cc1ccc(O)cc1)C(=O)N[C@H]1CC(=O)NCCCC[C@@H](C(N)=O)NC(=O)[C@H](Cc2c[nH]c3ccccc23)NC(=O)[C@H](CCCNC(=N)N)NC(=O)[C@@H](Cc2ccc3ccccc3c2)NC(=O)[C@H](Cc2c[nH]cn2)NC1=O [Compound 2, ENK-β-Ala-SHU] (H-Y[dA]GF[βAla][Nle]DH[d2Nal]RWK-NH2; lactam 7-12)",-2.33 ± 0.02,-2.33,104 ± 29.1,0.2,142 (31–654) nmol,0.12 ± 0.01,190,0.04 (0.03–0.68) nmol,22.8 ± 7.49,–,58.8 (27–128) nmol,–,–
ENK-Pro-Gly-SHU [Compound 7],–,–,–,–,0.16 (0.07–0.34) nmol,–,–,0.4 (0.3–0.6) nmol,–,–,–,impossible to calculate ED50 due to weak analgesic effect and poor dose dependency,"# (weak analgesic effects, poor dose dependency, ED50 cannot be calculated)"
